Test systems include ACHN; UO-31; RXF 393; A498; SF-295; UACC-257; SNB-19; PC-3; OVCAR-8; HOP-62; HCC 2998; SW-620; Malme-3M; A549; 786-0; KM12; T47D; NCI-H460; HL-60; NCI-H23.
What all share (assay): DTP human tumour cell line panel, 48 h

The structures appear in SMILES notation.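 Test compounds were applied to cells in 96-well plates for 48 hours at 5 doses. GI50 marks 50% less growth.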 Activity calls are given as the source filed them. No stated cut-off is given here; in the data, active = GI50 up to about 1.1 µM and inactive = higher.

By GI50 is commonly meant the concentration that inhibits growth by half. As to `Oc1cccc(-c2cc(O)c3cc4c(cc3n2)OCO4)c1`, the GI50 in the test on ACHN was 5.85 µM (inactive); with UO-31 it was 4.23 µM (inactive); in the test on RXF 393 it was 1.67 µM (inactive); in the test on A498, 41.8 µM (inactive); with SF-295, 5.74 µM (inactive); with UACC-257, > 26.1 µM (inactive). Further, the GI50 in the test on SNB-19 was 3.84 µM (inactive); in the test on PC-3, 1.55 µM (inactive); in the test with OVCAR-8, 2.85 µM (inactive); with HOP-62, 1.6 µM (inactive); with HCC 2998, 4.28 µM (inactive); with SW-620, 3.21 µM (inactive). Also, the GI50 in the test with Malme-3M was 0.352 µM (active); with A549, 5.27 µM (inactive); with 786-0, 5.52 µM (inactive); with KM12, 0.561 µM (active); in the test with T47D it was 23.7 µM (inactive); with NCI-H460 it was 17.8 µM (inactive). For the same compound, the figures for the GI50 with HL-60 and in the test on NCI-H23 were 1.26 µM (inactive) and 4.3 µM (inactive), respectively.

Turning to `CCCCCCCCCCN(CCCCCCCCCC)C(=O)COc1c2cc(C(C)(C)C)cc1Cc1cc(C(C)(C)C)cc(c1OCC(=O)N(CCCCCCCCCC)CCCCCCCCCC)Cc1cc(C(C)(C)C)cc(c1OCC(=O)N(CCCCCCCCCC)CCCCCCCCCC)Cc1cc(C(C)(C)C)cc(c1OCC(=O)N(CCCCCCCCCC)CCCCCCCCCC)C2`, the GI50 is 14.9 µM (inactive) in the test with ACHN; 22 µM (inactive) in the test with UO-31; 9.68 µM (inactive) in the test on RXF 393; 15.5 µM (inactive) in the test on A498; 10.1 µM (inactive) in the test on SF-295; 15.6 µM (inactive) in the test with UACC-257. The GI50 in the test on SNB-19 is 9.79 µM (inactive); in the test with PC-3 it was 9.93 µM (inactive); in the test with OVCAR-8, 4.16 µM (inactive); with HOP-62 it was 16.1 µM (inactive); with HCC 2998, 8.85 µM (inactive); in the test on SW-620, 1.93 µM (inactive). Further, the GI50 was 15 µM (inactive) in the test on Malme-3M; 16 µM (inactive) with A549; 11.2 µM (inactive) in the test with 786-0; 11.5 µM (inactive) in the test on KM12; 16.1 µM (inactive) in the test with T47D; 12.6 µM (inactive) in the test on NCI-H460. For the same compound, the GI50 in the test with HL-60 is 15 µM (inactive); in the test on NCI-H23 it was 1.75 µM (inactive).

With `CSc1ncc2c(C#N)c3n(C)c4ccccc4n3c(=O)c2n1`, the GI50 with ACHN, with UO-31, in the test with RXF 393, with A498, with SF-295 and with UACC-257 was > 100 µM (inactive) in each case. For the same compound, the GI50 with SNB-19, in the test on PC-3, in the test on OVCAR-8, in the test with HOP-62, with HCC 2998 and in the test with SW-620 was > 100 µM (inactive) throughout. The GI50 with Malme-3M, with A549, in the test on 786-0, in the test on KM12, in the test on T47D and with NCI-H460 was > 100 µM (inactive) in each case. Moreover, the GI50 in the test on HL-60 and in the test on NCI-H23 was > 100 µM (inactive) each time.

As to `CC1(C)[C@@H]2CC[C@@]1(C)C1(S[S+]1[O-])C21Cc2ccccc2C1` (stereo not given in full), the GI50 is 20.9 µM (inactive) in the test with ACHN; 21.4 µM (inactive) in the test with UO-31; 18.5 µM (inactive) with RXF 393; 28.7 µM (inactive) in the test on A498; 57.1 µM (inactive) with SF-295; 20.9 µM (inactive) in the test on UACC-257. Moreover, the GI50 in the test on SNB-19 is > 100 µM (inactive); in the test on PC-3 it was 17.9 µM (inactive); in the test on OVCAR-8, 17.3 µM (inactive); in the test on HOP-62, 81.1 µM (inactive); in the test with HCC 2998, 18.5 µM (inactive); in the test with SW-620, 14.7 µM (inactive). The GI50 is 38.8 µM (inactive) in the test with Malme-3M; 36.8 µM (inactive) in the test on A549; 16.4 µM (inactive) in the test on 786-0; 56.1 µM (inactive) in the test with KM12; 21.6 µM (inactive) in the test with T47D; 21.5 µM (inactive) with NCI-H460. For the same compound, the GI50 in the test with HL-60 was 18.1 µM (inactive); in the test on NCI-H23, 31.8 µM (inactive).

As for `COc1ccc(C(=O)/C=C/c2ccc3c(c2)OCO3)c(OCc2ccccc2)c1`, the GI50 is 16.6 µM (inactive) with ACHN; 37.2 µM (inactive) in the test with UO-31; 11 µM (inactive) in the test with RXF 393; > 84.9 µM (inactive) in the test with A498; > 61.8 µM (inactive) in the test on SF-295; > 63 µM (inactive) with UACC-257. Moreover, the GI50 in the test with SNB-19 was > 100 µM (inactive); in the test on PC-3 it was 11.6 µM (inactive); with OVCAR-8, 7.67 µM (inactive); with HOP-62, > 100 µM (inactive); with HCC 2998, 8.28 µM (inactive); with SW-620, 8.71 µM (inactive). In addition, the GI50 was > 100 µM (inactive) in the test on Malme-3M; 47.3 µM (inactive) in the test with A549; > 67.8 µM (inactive) with 786-0; 4.83 µM (inactive) in the test with KM12; > 43.5 µM (inactive) in the test with T47D; 8.22 µM (inactive) with NCI-H460. The results for the GI50 in the test on HL-60 and in the test with NCI-H23 were 2.01 µM (inactive) and 24.3 µM (inactive), respectively.

Turning to `O=C1c2ccccc2C(=O)c2c(NCC3CO3)cccc21` (stereo not given), the GI50 was 8.67 µM (inactive) in the test with ACHN; 8.05 µM (inactive) with UO-31; 7.66 µM (inactive) with RXF 393; 34.4 µM (inactive) with A498; 26.5 µM (inactive) in the test on SF-295; > 56.2 µM (inactive) in the test on UACC-257. Also, the GI50 in the test with SNB-19 is > 57.3 µM (inactive); in the test on PC-3, 16.9 µM (inactive); with OVCAR-8, 7.19 µM (inactive); with HOP-62, > 46.1 µM (inactive); with HCC 2998 it was > 100 µM (inactive); in the test on SW-620 it was 5.57 µM (inactive). Further, the GI50 was > 80.5 µM (inactive) with Malme-3M; 57 µM (inactive) in the test on A549; 12.2 µM (inactive) in the test with 786-0; 18.6 µM (inactive) in the test with KM12; > 100 µM (inactive) in the test on T47D; > 64.7 µM (inactive) in the test on NCI-H460. Further, the GI50 in the test on HL-60 was 5.27 µM (inactive); with NCI-H23 it was 9.44 µM (inactive).

For the compound `O=[N+]([O-])c1ccc2nc(O)n[n+]([O-])c2c1`, the GI50 in the test on ACHN, in the test with UO-31, in the test on RXF 393, in the test on A498, with SF-295 and in the test with UACC-257 was > 100 µM (inactive) each time. For the same compound, the GI50 in the test on SNB-19, in the test on PC-3, in the test with OVCAR-8, with HOP-62, in the test with HCC 2998 and in the test with SW-620 was > 100 µM (inactive) in each case. For the same compound, the GI50 in the test on Malme-3M, in the test on A549, in the test with 786-0, in the test on KM12, in the test with T47D and in the test on NCI-H460 was > 100 µM (inactive) each time. Also, the GI50 with HL-60 and in the test on NCI-H23 was > 100 µM (inactive) each time.

For the compound `CC[C@H](C)[C@H](NC(=O)[C@@]1(O)[C@H](O)[C@]2(CC)C=CCN3CC[C@@]4(c5cc(Br)c(OC)cc5N(C)[C@@H]14)[C@@H]32)C(=O)OC`, the GI50 was 24.8 µM (inactive) in the test on ACHN; 44.4 µM (inactive) with UO-31; 45.5 µM (inactive) in the test with RXF 393; 25.3 µM (inactive) with A498; 33.8 µM (inactive) in the test with SF-295; 24.9 µM (inactive) with UACC-257. The GI50 is 64.3 µM (inactive) in the test with SNB-19; 76.7 µM (inactive) in the test with PC-3; 39.4 µM (inactive) in the test on OVCAR-8; 32.2 µM (inactive) in the test with HOP-62; 23.8 µM (inactive) in the test on HCC 2998; 29 µM (inactive) in the test with SW-620. For the same compound, the GI50 in the test with Malme-3M was 21.9 µM (inactive); with A549 it was 20.5 µM (inactive); with 786-0 it was 63.5 µM (inactive); in the test with KM12, 27.2 µM (inactive); with T47D it was 52.4 µM (inactive); in the test on NCI-H460 it was 24.3 µM (inactive). The GI50 in the test with HL-60 is 37.8 µM (inactive); in the test with NCI-H23, 86.1 µM (inactive).

`O=S(=O)(N/C(=N\O)Nc1ccc(Cl)cc1)c1ccc(S(=O)(=O)c2ccccc2)s1`: the GI50 with ACHN was 20 µM (inactive); in the test with UO-31 it was 19.4 µM (inactive); with RXF 393 it was 24 µM (inactive); with A498, 15.5 µM (inactive); with SF-295, 26.5 µM (inactive); in the test with UACC-257, 16 µM (inactive). The GI50 is 33.7 µM (inactive) in the test on SNB-19; 25.9 µM (inactive) in the test with PC-3; 24.3 µM (inactive) in the test with OVCAR-8; 26.5 µM (inactive) with HOP-62; 14.3 µM (inactive) in the test with HCC 2998; 30.1 µM (inactive) in the test with SW-620. In addition, the GI50 in the test with Malme-3M was 19.4 µM (inactive); in the test with A549 it was 28.6 µM (inactive); in the test on 786-0, 29.7 µM (inactive); in the test with KM12, 20.6 µM (inactive); with T47D, 15.8 µM (inactive); with NCI-H460, 14.4 µM (inactive). Besides, the GI50 was 27.4 µM (inactive) in the test on HL-60 and 17 µM (inactive) in the test with NCI-H23.

Consider `COC(=O)CC1C(COC(C)=O)OC(n2cc(C)c(=O)[nH]c2=O)C1OC(C)=O` (stereo not given), for which the GI50 in the test with ACHN, in the test on UO-31, in the test with RXF 393, in the test on A498, in the test with SF-295 and in the test with UACC-257 was > 100 µM (inactive) in each case. Besides, the GI50 in the test with SNB-19, with PC-3, in the test on OVCAR-8, with HOP-62, in the test on HCC 2998 and in the test with SW-620 was > 100 µM (inactive) each time. The GI50 in the test on Malme-3M, in the test on A549, in the test on 786-0, with KM12, in the test with T47D and in the test on NCI-H460 was > 100 µM (inactive) in each case. Besides, the GI50 in the test on HL-60 and with NCI-H23 was > 100 µM (inactive) throughout.
